Test results from patent publication US10702521B2, “Methods for treating neisseria gonorrhoeae infection with substituted 1,2-dihydro-2A,5,8A-triazaacenaphthylene-3,8-diones” (priority 2014, dated 2020).
Counter-ions that a name gives are not always drawn. Like-named read-outs stand apart in the source and are kept apart here.

Legend:
Neisseria gonorrhoeae = assay: In vitro MIC by CLSI agar dilution against Neisseria gonorrhoeae isolates; assay type: cell-based; conditions: for MIC90: Neisseria gonorrhoeae
[1] = system: Mycobacterium tuberculosis H37Rv; assay: Mycobacterium tuberculosis H37Rv Inhibition Assay (resazurin MIC); assay type: cell-based; conditions: H37Rv strain, six days incubation, resazurin fluorescence after 48 hours, read-out: MIC value
N. gonorrhoeae MS11 [2] = assay: Mouse model of N. gonorrhoeae vaginal colonization; assay type: in vivo, mice; conditions: for mice in which colonization with N. gonorrhoeae MS11 was eliminated by the end of the study: two studies
Procedure: A mouse model of N. gonorrhoeae vaginal colonization was performed to evaluate the efficacy of compounds of the present invention. Two independent studies were performed by the same laboratory.
In particular, Example 39 (i.e., (2R)-2-({4-[(3,4-Dihydro-2H-pyrano[2,3-c]pyridin-6-ylmethyl)amino]-1-piperidinyl}methyl)-1,2-dihydro-3H, 8H-2a,5,8a-triazaacenaphthylene-3,8-dione hydrochloride) was tested in this model following a single oral dose or a total of two oral doses administered on the same day. Female mice were primed for colonization using estradiol; trimethoprim sulfate and streptomycin were administered to control commensals. On day 0, mice were inoculated intravaginally with N. gonorrhoeae MS11 (Example 39—MIC 1 μg/ml). Successful colonization was confirmed via vaginal swab culture on days 1 and 2. Single oral doses at 100 mg/kg and 200 mg/kg or a total of two oral doses at 100 mg/kg each of Example 39 were administered on day 2. Vaginal swabs for quantitative culture were collected daily through day 10 (8 days post treatment).

[3] = Estimation of PK parameters from blood samples in mice; assay type: in vivo; conditions: estimated
Procedure: In one study, blood samples were collected terminally from a separate group of mice at 1, 2, 6 and 12 hours post Example 39 administration (n=3 per time point and dose) to allow for estimation of PK parameters.

N. gonorrhoeae MS11 [4] = assay: MIC / susceptibility of N. gonorrhoeae MS11 (strain of the mouse model); assay type: cell-based, Neisseria gonorrhoeae
[5] = system: Staphylococcus aureus, Streptococcus pneumoniae, Streptococcus pyogenes, Enterococcus faecalis, Enterococcus faecium, Haemophilus influenzae, Moraxella …; assay: Antimicrobial Activity Assay: whole-cell MIC by broth microdilution (CLSI M7-A7); assay type: cell-based, Gram-positive and Gram-negative organisms; conditions: against a strain of at least one of the organisms listed
Procedure: Whole-cell antimicrobial activity was determined by broth microdilution using the Clinical and Laboratory Standards Institute (CLSI) recommended procedure, Document M7-A7, “Methods for Dilution Susceptibility Tests for Bacteria that Grow Aerobically”. The compounds were tested in serial two-fold dilutions ranging from 0.016 to 16 mcg/ml.
The minimum inhibitory concentration (MIC) was determined as the lowest concentration of compound that inhibited visible growth. A mirror reader was used to assist in determining the MIC endpoint.
Compounds were evaluated against Gram-positive organisms, selected from Staphylococcus aureus, Streptococcus pneumoniae, Streptococcus pyogenes, Enterococcus faecalis and Enterococcus faecium.
In addition, compounds were evaluated against Gram-negative organisms selected from Haemophilus influenzae, Moraxella catarrhalis, Escherichia coli, Pseudomonas aeruginosa, Proteus mirabilis, Enterobacter cloacae, Enterobacter aerogenes, Klebsiella pneumoniae and Stenotrophomonas maltophilia.

O=c1ccc2ncc(=O)n3c2n1C[C@H]3CN1CCC(NCc2cc3c(cn2)OCCC3)CC1 [Example 39, (2R)-2-({4-[(3,4-Dihydro-2H-pyrano[2,3-c]pyridin-6-ylmethyl)amino]-1-piperidinyl}methyl)-1,2-dihydro-3H,8H-2a,5,8a-triazaacenaphthylene-3,8-dione hydrochloride]
MIC90 fold higher than that of ceftriaxone (Neisseria gonorrhoeae; 30 isolates of N. gonorrhoeae): at least 16 fold | MIC90 fold lower than ciprofloxacin (Neisseria gonorrhoeae; 30 isolates of N. gonorrhoeae): at least 8 fold | MIC90 (Neisseria gonorrhoeae; 30 isolates of N. gonorrhoeae collected 2003 through 2007, read-out: MIC90 (MIC which inhibits 90% of the isolates tested)): 0.5 µg/mL | MIC90 (Neisseria gonorrhoeae; second study, all 145 isolates of N. gonorrhoeae, majority collected in 2013, read-out: MIC90): 0.5 µg/mL | MIC90 (Neisseria gonorrhoeae; second study, subset of 37 ciprofloxacin-nonsusceptible isolates, read-out: MIC90): 1 µg/mL | modal value (MIC) (Neisseria gonorrhoeae; against the 9 ciprofloxacin-resistant N. gonorrhoeae tested): remained unchanged | MIC [1]: < 2 µg/mL | course of colonization after initial clearance (N. gonorrhoeae MS11 [2]; first study, one mouse in each dose group, not observed in the follow-up study): regrowth to a high number of organisms by the end of the study | mice in which colonization with N. gonorrhoeae MS11 was eliminated by the end of the study (N. gonorrhoeae MS11 [2]; single oral dose of 100 mg/kg on day 2): 70-80% | mice in which colonization with N. gonorrhoeae MS11 was eliminated by the end of the study (N. gonorrhoeae MS11 [2]; single oral dose of 200 mg/kg on day 2): 90-100% | mice in which colonization with N. gonorrhoeae MS11 was eliminated by the end of the study (N. gonorrhoeae MS11 [2]; two 100 mg/kg oral doses administered on the same day): 100% | fAUC0-24 ([3]; single oral dose of 100 mg/kg): 8000 ng·h/mL | fAUC0-24 ([3]; single oral dose of 200 mg/kg): 22000 ng·h/mL | fAUC0-24 ([3]; two 100 mg/kg oral doses on the same day): 16000 ng·h/mL | MIC (N. gonorrhoeae MS11 [4]; Neisseria gonorrhoeae, N. gonorrhoeae MS11): 1 µg/mL | change in susceptibility of N. gonorrhoeae MS11 colonies recovered from treated mice (N. gonorrhoeae MS11 [4]; compared with stock cultures of the organism): did not demonstrate any change in susceptibility

O=c1ccc2ccc(=O)n3c2n1C[C@H]3CN1CCC(NCc2cc3c(cn2)COC3)CC1 [Example 9, (1R)-1-({4-[(1,3-Dihydrofuro[3,4-c]pyridin-6-ylmethyl)amino]-1-piperidinyl}methyl)-1,2-dihydro-4H,9H-imidazo[1,2,3-ij]-1,8-naphthyridine-4,9-dione hydrochloride]
MIC [5]: ≤ 4 µg/mL

CC1(NCc2cc3c(cn2)OCS3)CCN(C[C@@H]2Cn3c(=O)ccc4ccc(=O)n2c43)CC1.Cl [Example 24, (1R)-1-({4-Methyl-4-[([1,3]oxathiolo[5,4-c]pyridin-6-ylmethyl)amino]-1-piperidinyl}methyl)-1,2-dihydro-4H,9H-imidazo[1,2,3-ij]-1,8-naphthyridine-4,9-dione hydrochloride]
MIC [1]: < 2 µg/mL
